Results: US10195156B2, “Compounds and compositions for intracellular delivery of agents” (ModernaTX, Inc., priority 2015, dated 2019)
Read-outs that look alike come from different tables or passages of the source.

Key:
IL-6 = experiment: Cytokine production induced by sample formulations: IL-6; type: in vivo; conditions: Table 4; mice, i.v., 0.5 mpk, 6 hours; in pg/mL (unit assumed)
In short: (§1)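 Cytokine levels were quantified at 6 hours in mice given the nanoparticle compositions i.v. at 0.5 mpk. MC3 standard formulation and PBS served as comparators.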

[1] = pKa of nanoparticle compositions; type: physicochemical
[2] = Concentration of RNA in nanoparticle composition (ultraviolet-visible spectroscopy); type: physicochemical; conditions: Table 5; hEPO mRNA; 40:20:38.5:1.5 Lipid:DOPE:Chol:PEG-DMG
Experimental: Ultraviolet-visible spectroscopy can be used to determine the concentration of a therapeutic and/or prophylactic agent (e.g., RNA) in nanoparticle compositions. 100 μL of the diluted formulation in 1×PBS is added to 900 μL of a 4:1 (v/v) mixture of methanol and chloroform. After mixing, the absorbance spectrum of the solution is recorded, for example, between 230 nm and 330 nm on a DU 800 spectrophotometer (Beckman Coulter, Beckman Coulter, Inc., Brea, Calif.). The concentration of therapeutic and/or prophylactic agent in the nanoparticle composition can be calculated based on the extinction coefficient of the therapeutic and/or prophylactic agent used in the composition and on the difference between the absorbance at a wavelength of, for example, 260 nm and the baseline value at a wavelength of, for example, 330 nm.

[3] = system: modified luciferase expression; experiment: Expression of Luc in different organs (liver, lung, spleen, femur) 6 hours after intravenous administration; type: in vivo; conditions: Table 3, mice, i.v., 0.5 mpk
Experimental: The efficacy of the nanoparticle compositions presented in Tables 1, 1a, 17-1, 19-1, 20-1 and 21-1 was further evaluated by measuring the expression of modified luciferase in the liver, lung, spleen, and femur upon administration of a given composition. Formulations were administered intravenously to mice (n=3) at a dosage of 0.5 mpk and bioluminescence measured after 6 hours. The standard MC3 formulation and a PBS control were also tested.

[4] = Particle size and polydispersity index of nanoparticle compositions (Zetasizer Nano ZS); type: physicochemical
In short: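 Measured in 1×PBS by Zetasizer Nano ZS.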

[5] = Encapsulation efficiency of RNA (QUANT-IT RIBOGREEN RNA assay); type: physicochemical
In short: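 RiboGreen fluorescence (ex ~480, em ~520 nm) measured after 15 min at 37 °C on samples at ~5 μg/mL in TE, pH 7.5, ± 2% Triton X-100 solution. After blank subtraction, free RNA is given as intact-sample signal divided by disrupted-sample signal.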

[6] = Lipid levels in liver and spleen 48 hours after administration; type: in vivo, rats; conditions: 48 hours after administration; for concentration at 48 h: Sprague-Dawley, rat, intravenous
Experimental: Formulations were administered intravenously to rats (n=3 or 6) at a dosage of 0.2 mg/kg or 0.5 mg/kg (mpk) and hEPO levels measured at 3, 6, and 24 hour time points. After the 48 hour time point, livers and spleens were harvested and frozen.
The amount of lipid in the liver and spleen 48 hours after administration of a nanoparticle composition was also measured. […] In contrast, approximately 60% of doses including MC3 or Compound 22 remained in the liver after 48 hours. Less than 3% of the dose remained in the spleen for each composition tested.

[7] = system: luciferase (Luc) mRNA expression; experiment: Expression of Luc induced by sample formulations, whole-body bioluminescence after intravenous administration; type: in vivo
In short: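 Read-out is whole-body bioluminescence at 3, 6 and 24 h after a single intravenous dose of 0.5 mg/kg Luc mRNA in nanoparticle formulations. Groups of n=6 mice; PBS and standard MC3 formulation as references.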

hEPO mRNA expression = experiment: Expression of hEPO in rats after intravenous administration; type: in vivo; conditions: for hEPO (pg/mL) 3 hours / hEPO (pg/mL) 6 hours / hEPO (pg/mL) 24 hours: Table 6, 0.2 mg/kg or 0.5 mg/kg; for Lipid/MC3 hEPO S.D. (rats): hEPO expression relative to MC3, S.D. rats, intravenous
Experimental: PBS (phosphate buffered saline) is used as control.
Formulations were prepared according to Table 5 and included mRNA encoding hEPO.
[…] After the 48 hour time point, livers and spleens were harvested and frozen.

IP-10 = experiment: Cytokine production induced by sample formulations: IP-10; type: in vivo; conditions: Table 4; mice, i.v., 0.5 mpk, 6 hours; in pg/mL (unit assumed)
In short: as §1

LDL-c = experiment: LDL levels in LDLr−/− mice after mRNA encoding the LDL receptor; type: in vivo, LDLR knockout mice; conditions: Mus musculus; Table 7b; LDLr−/− mice, 0.5 mpk, LDLr; read-out: LDL levels lipid/untreated LDLr−/− mice 0.5 mpk, LDLr
[8] = Tolerability / toxicity in rats (hEPO study); type: in vivo; conditions: FIG. 8, i.v., 2 mg/kg dose
[9] = Table 1, rows without footnote mark
[10] = Table 5, hEPO mRNA, 40:20:38.5:1.5 Lipid:DOPE:Chol:PEG-DMG
[11] = liver, read-out: Lipid in liver
[12] = spleen, read-out: Lipid in spleen
[13] = Table 1, # formulated with hEPO mRNA

Row | SMILES | pKa [1, 10] | Conc. [2] | PDI [4, 10] | Size (nm) [4, 10] | EE (%) [5, 10] | concentration at 48 h [6, 11] | concentration at 48 h [6, 12] | % remaining dose in liver ([6]; liver) | % remaining dose in spleen ([6]; spleen) | hEPO (pg/mL) 3 hours (hEPO mRNA expression; rats, i.v.) | hEPO (pg/mL) 6 hours (hEPO mRNA expression; rats, i.v.) | hEPO (pg/mL) 24 hours (hEPO mRNA expression; rats, i.v.) | Lipid/MC3 hEPO S.D. (rats) (hEPO mRNA expression) | pKa [1, 13] | PDI [4, 13] | Size (nm) [4, 13] | EE (%) [5, 13] | also measured
1 | CCCCCCCCCCCCN(CCCCCCCCCCCC)CCN(CCCCCCCCCCCC)CCN1CCN(CCN(CCCCCC(=O)OCCCCC)CCCCCC(=O)OCCCCC)CC1 [Compound 14, Dipentyl 6,6′-((2-(4-(2-((2-(didodecylamino)ethyl)(dodecyl)amino)ethyl)piperazin-1-yl)ethyl)azanediyl)dihexanoate] | 6.308 | 603.76 µg/mL | 0.14 | 76.8 nm | 98.91% | 3990 ng/g | 1620 ng/g | 5.54% | 0.15% | 280973 pg/mL | 158520 pg/mL | 58805 pg/mL | 0.12 |  |  |  |  | IL-6 (IL-6): 17; pKa [1, 9]: 6.31; Total Flux Liver ([3]; liver): 2.62E+08; Total Flux Lung ([3]; lung): 3.56E+06; Total Flux Spleen ([3]; spleen): 1.46E+07; PDI [4, 9]: 0.008; Size (nm) ([4]; Table 1, rows without footnote mark (lipid:DOPE:cholesterol:PEG-DMG 40:20:38.5:1.5, Luc mRNA; MC3 standard formulation)): 88.7 nm; EE (%) [5, 9]: 96.6%; Total Flux 3 hours ([7]; Table 2, mice, i.v., 0.5 mg/kg, 3 hours): 9.86E+08; Total Flux 6 hours ([7]; Table 2, mice, i.v., 0.5 mg/kg, 6 hours): 1.56E+09; Total Flux 24 hours ([7]; Table 2, mice, i.v., 0.5 mg/kg, 24 hours): 1.02E+08; Luc expression in mice compared with MC3 (in words) ([7]; Table 7a): significantly lower; IP-10 (IP-10): 209
2 | CCCCCCCCCCCCN(CCCCCCCCCCCC)CCN(CCCCCCCCCCCC)CCN1CCN(CCN(CCCCCCCCCCCC)CCCCCCCCCCCC(=O)OC)CC1 [Compound 15, Methyl 12-((2-(4-(2-((2-(didodecylamino)ethyl)(dodecyl)amino)ethyl)piperazin-1-yl)ethyl)(dodecyl)amino)dodecanoate] | 6.323 | 713.00 µg/mL | 0.12 | 100.3 nm | 90.15% | 3070 ng/g | 971 ng/g | 4.22% | 0.089% | 103773 pg/mL | 125320 pg/mL | 67965 pg/mL | 0.095 | 6.32 | 0.120 | 100.3 nm | 90.2% | 
3 | CCCCCCCCCCCCN(CCCCCCCCCCCC)CCN(CCCCCCCCCCCC)CCN1CCN(CCN(CCCCCCCCCCCC(=O)OC)CCCCCCCCCCCC(=O)OC)CC1 [Compound 16, Dimethyl 12,12′-((2-(4-(2-((2-(didodecylamino)ethyl)(dodecyl)amino)ethyl)piperazin-1-yl)ethyl)azanediyl)didodecanoate] | 6.282 | 665.11 µg/mL | 0.14 | 77.4 nm | 98.22% | 597 ng/g | 293 ng/g | 0.79% | 0.026% | 35387 pg/mL | 41720 pg/mL | 17184 pg/mL | 0.031 | 6.28 | 0.140 | 77.4 nm | 98.2% | hEPO expression in rats, comparison (in words) (hEPO mRNA expression; rats, i.v., 0.2 or 0.5 mg/kg, Tables 6, 7a): lowest hEPO expression at each time point
4 | CCCCCCCCCCCCN(CCCCCCCCCCCC)CCN(CCCCCCCCCCCC)CCN1CCN(CCN(CCCCCCCC)CCCCCCCC)CC1 [Compound 22, N^1-(2-(4-(2-(Dioctylamino)ethyl)piperazin-1-yl)ethyl)-N^1,N^2,N^2-tridodecylethane-1,2-diamine] | 6.153 | 564.97 µg/mL | 0.13 | 75.4 nm | 98.29% | 36800 ng/g | 3890 ng/g | 58.7% | 0.41% | 181627 pg/mL | 267680 pg/mL | 75571 pg/mL | 0.20 | 6.15 | 0.130 | 75.4 nm | 98.3% | dose remaining in the liver after 48 hours ([6]; liver): approximately 60%
5 | CCCCCCCCCCCCN(CCCCCCCCCCCC)CCN(CCCCCCCCCCCC)CCN1CCN(CCN(CCCCCCCCCCCC)CCCCCCCCCCCC)CC1 [KL22, N1-[2-(didodecylamino)ethyl]-N1,N4,N4-tridodecyl-1,4-piperazinediethanamine, reference compound] |  |  |  |  |  |  |  |  |  |  |  |  |  |  |  |  |  | response vs control in vivo at 0.5 mg/kg (LDL-c): 51%; tolerability / toxicity in rats (in words) [8]: toxic; hEPO expression in rats (in words) (hEPO mRNA expression; FIG. 8, rats, i.v., 2 mpk (Graph A)): do not express hEPO in rats
